Laboratory results as given in PMC4669722, “Antitumour potential of BPT: a dual inhibitor of cdk4 and tubulin polymerization” (Cell Death & Disease, 2015).

Assays:
[1] = system: LS174T (colorectal carcinoma; p53+, pRb+); test: Cell proliferation (MTT) assay, LS174T; format: cell-based; conditions: Homo sapiens, 48 h, read-out: IC50 cell growth inhibition, LS174T
Procedure: All 10 human cancer cell lines were maintained at 37 °C in 5% CO2 in RPMI-1640 medium, supplemented with 10% foetal calf serum and 100 μg/ml normocin. The 10 cancer cell lines used for screening were all obtained from ATCC (Manassas, VA, USA); they were the NSCLC (a form of cancer that is resistant to chemotherapy) lines: NCI-H460 (pRb^+, p53^+), A549 (pRb^+, p53^+), Calu-1 (pRb^+, p53-null), NCI-H1299 (pRb^+, p53-null), NCI-H358 (pRb-null, p53-null); the colon cancer line LS174T (pRb^+, p53^+); the prostate cancer line PC-3 (pRb^+, p53-null); the pancreatic cancer line MiaPaca (pRb^+, p53-mutant). The genotypes within brackets indicate the status of the tumour suppressor proteins pRb and p53. The mouse embryonic normal hepatic cell line (BNL CL2) and its SV40 large T-antigen-transformed counterpart cell line (BNL SV A.8) were also purchased from ATCC. The large T-antigen inactivates the tumour suppressor proteins p53 and pRb. The detailed procedure of cell proliferation (MTT) assay and IC50 determination was described previously.[32]

PKCα = PKCα (Homo sapiens, UniProt P17252); test: Kinase profiling (Millipore), PKCα; format: biochemical
Procedure: (§1) The in vitro kinase assays for testing against Cdk4-cyclin D1, Cdk2-cyclin A, Cdk1-cyclin B1 and Cdk9-cyclin T1 were performed in-house. The methodology and results have been reported previously.[20], [30], [31], [32], [45] The kinase profiling for 58 representative kinases was carrried out commercially at Millipore Bioscience Division, Livingston, UK.

GSK3β = GSK3β (Homo sapiens, UniProt P49841); test: Kinase profiling (Millipore), GSK3β; format: biochemical
GSK3β, sequence (P49841 whole entry): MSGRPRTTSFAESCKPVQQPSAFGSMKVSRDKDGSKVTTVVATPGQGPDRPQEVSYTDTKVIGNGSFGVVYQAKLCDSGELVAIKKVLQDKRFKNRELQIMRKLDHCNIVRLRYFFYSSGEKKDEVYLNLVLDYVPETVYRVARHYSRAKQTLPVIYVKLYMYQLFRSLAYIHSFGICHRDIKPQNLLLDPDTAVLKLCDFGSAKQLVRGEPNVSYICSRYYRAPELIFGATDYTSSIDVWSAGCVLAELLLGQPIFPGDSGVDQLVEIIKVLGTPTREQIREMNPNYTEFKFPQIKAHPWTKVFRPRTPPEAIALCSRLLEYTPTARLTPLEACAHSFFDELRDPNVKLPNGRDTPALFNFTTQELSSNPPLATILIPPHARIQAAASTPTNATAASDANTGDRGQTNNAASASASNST
Procedure: as §1

Cdk7-cyclin H = Cdk7-cyclin H (Homo sapiens, UniProt P50613); test: Kinase profiling (Millipore), Cdk7-cyclin H; format: biochemical
Cdk7-cyclin H, sequence (P50613 whole entry): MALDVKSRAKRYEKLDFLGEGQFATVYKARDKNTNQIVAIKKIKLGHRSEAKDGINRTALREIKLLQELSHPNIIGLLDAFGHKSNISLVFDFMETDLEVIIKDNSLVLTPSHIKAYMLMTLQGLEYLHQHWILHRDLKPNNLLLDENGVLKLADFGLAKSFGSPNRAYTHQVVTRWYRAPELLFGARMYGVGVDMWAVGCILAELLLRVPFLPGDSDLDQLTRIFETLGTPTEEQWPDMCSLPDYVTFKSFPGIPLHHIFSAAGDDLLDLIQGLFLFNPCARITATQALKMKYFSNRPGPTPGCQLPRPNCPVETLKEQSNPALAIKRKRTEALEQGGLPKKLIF
Cdk7-cyclin H, sequence (P51946 whole entry partner): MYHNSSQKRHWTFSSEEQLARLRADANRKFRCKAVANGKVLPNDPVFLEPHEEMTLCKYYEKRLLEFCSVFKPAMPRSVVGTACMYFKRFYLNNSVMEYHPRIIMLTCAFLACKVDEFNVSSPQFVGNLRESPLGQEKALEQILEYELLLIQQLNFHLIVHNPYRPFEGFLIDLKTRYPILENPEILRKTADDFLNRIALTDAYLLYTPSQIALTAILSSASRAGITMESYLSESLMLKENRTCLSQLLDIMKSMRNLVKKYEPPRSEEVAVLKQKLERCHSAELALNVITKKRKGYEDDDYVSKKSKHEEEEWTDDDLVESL
Cdk7-cyclin H, sequence (P51948 whole entry partner): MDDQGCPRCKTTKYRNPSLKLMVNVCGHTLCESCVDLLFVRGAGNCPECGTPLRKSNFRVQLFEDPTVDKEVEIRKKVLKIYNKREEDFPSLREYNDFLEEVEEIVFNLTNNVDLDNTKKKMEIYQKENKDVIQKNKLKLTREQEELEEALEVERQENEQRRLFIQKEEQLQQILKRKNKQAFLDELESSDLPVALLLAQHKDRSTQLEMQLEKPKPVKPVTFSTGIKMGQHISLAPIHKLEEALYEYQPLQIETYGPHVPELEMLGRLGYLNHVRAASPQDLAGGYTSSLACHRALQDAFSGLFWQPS
Procedure: as §1

[2] = system: BNL SV A.8 (mouse embryonic SV40-transformed hepatic cells); test: Flow cytometric cell cycle analysis, BNL SV A.8; format: cell-based; conditions: 48 h
Procedure: (§2) The untreated (control) and treated (with test compounds) cells were harvested by trypsinization, washed once with PBS and then fixed in 70% chilled (−20 °C) ethanol for minimum 1 h. After the fixation step, cells were centrifuged for 5 min at 3000 × g at room temperature, and the pellet was suspended in PBS containing 50 μg/ml propidium iodide (Sigma-Aldrich, Dorset, UK; cat. no. P-4170) and 0.5 mg/ml DNase-free ribonuclease (Sigma-Aldrich; cat. no. R-5503). The cells were stained for 1 h in the dark at 4 °C. Cell cycle analysis was performed on the Beckman Coulter (Epics Altra) fluorescence-activated cell sorter (Beckman Coulter UK Ltd, Buckinghamshire, UK). To gate all the events that represent single cells, and not cell doublets or cell clumps, the following analyses were performed on the samples. Cytograms of propidium iodide fluorescence peak signal versus integrated fluorescence or the linear signal were plotted. All data points on the straight line were isolated in a single gate and the gated data was further used for plotting a histogram that represents a complete cell cycle. The total number of events was not allowed to exceed 200 events per s. Data acquisition was stopped after a minimum of 10 000 events had been collected.

Cdk9-cyclin T1 = Cdk9-cyclin T1 (Homo sapiens, UniProt P50750); test: In vitro kinase assay, Cdk9-cyclin T1 (in-house); format: biochemical; conditions: three independent experiments; read-out: IC50 (mean±S.D.), Cdk9-cyclin T1
Cdk9-cyclin T1, sequence (P50750 whole entry): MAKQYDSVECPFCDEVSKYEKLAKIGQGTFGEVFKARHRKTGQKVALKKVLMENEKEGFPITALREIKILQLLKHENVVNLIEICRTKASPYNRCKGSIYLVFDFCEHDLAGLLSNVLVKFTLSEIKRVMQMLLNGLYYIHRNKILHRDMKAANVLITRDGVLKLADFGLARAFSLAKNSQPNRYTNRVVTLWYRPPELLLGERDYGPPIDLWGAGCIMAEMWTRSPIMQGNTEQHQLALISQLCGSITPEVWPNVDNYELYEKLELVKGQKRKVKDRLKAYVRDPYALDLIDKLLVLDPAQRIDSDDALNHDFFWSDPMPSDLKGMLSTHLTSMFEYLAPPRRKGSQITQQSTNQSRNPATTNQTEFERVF
Cdk9-cyclin T1, sequence (O60563 whole entry partner): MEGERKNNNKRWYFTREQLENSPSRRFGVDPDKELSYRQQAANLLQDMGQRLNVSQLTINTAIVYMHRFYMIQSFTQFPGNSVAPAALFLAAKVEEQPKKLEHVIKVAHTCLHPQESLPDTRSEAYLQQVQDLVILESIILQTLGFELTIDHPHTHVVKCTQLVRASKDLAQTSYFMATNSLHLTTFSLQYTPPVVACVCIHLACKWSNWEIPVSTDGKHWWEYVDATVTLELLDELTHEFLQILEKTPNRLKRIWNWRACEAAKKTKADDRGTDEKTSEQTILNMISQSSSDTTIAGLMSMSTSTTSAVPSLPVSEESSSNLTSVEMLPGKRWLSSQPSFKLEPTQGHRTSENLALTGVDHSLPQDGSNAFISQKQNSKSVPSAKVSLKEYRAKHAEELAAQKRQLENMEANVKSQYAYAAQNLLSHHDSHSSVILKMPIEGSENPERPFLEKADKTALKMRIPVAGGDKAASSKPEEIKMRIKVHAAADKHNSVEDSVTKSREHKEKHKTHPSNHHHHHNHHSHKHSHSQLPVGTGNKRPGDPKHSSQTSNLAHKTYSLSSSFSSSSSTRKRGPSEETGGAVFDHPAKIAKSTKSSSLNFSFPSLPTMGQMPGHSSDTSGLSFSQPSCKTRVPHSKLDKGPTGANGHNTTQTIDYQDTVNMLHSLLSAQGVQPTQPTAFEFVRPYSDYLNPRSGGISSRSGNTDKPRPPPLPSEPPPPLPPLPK
Procedure: as §1

PDGFR = test: Kinase profiling (Millipore), PDGFR; format: biochemical
Procedure: as §1

tubulin in A549 cells = test: Tubulin polymerization/depolymerization in live cells (western blot); format: cell-based, human
Procedure: A549 (NSCLC) cells were seeded at a concentration of 10 000 cells per well in 1 ml complete growth medium in 24-well per 15 mm culture plates. The plates were incubated for 24 h for cell attachment and stabilization. In the first set of experiments, the cells were treated with 10 nM paclitaxel and different concentrations of BPT for 30 min (cells underwent simultaneous treatment of paclitaxel and BPT). In the second set of experiments, to study the effect of BPT on the stabilised form of tubulin, cells were pretreated with 10 nM paclitaxel for 30 min. The cell monolayer was washed two times with sterile PBS and fresh growth medium containing different concentrations of BPT were added. The plates were further incubated for 30 min, the cell monolayers were washed two times with sterile PBS at room temperature and then 100 μl tubulin extraction buffer (1 mM MgCl2, 2 mM EGTA, 0.5% NP40 and 20 mM Tris-HCl (pH 6.8)) supplemented with 2 mM phenylmethylsulfonyl fluoride, and a protease inhibitor cocktail (Sigma-Aldrich; cat. no. P8340) was added per well. After a short and vigorous vortex mixing, the cell lysates were incubated at room temperature for 5 min and then centrifuged at 16 000 r.p.m. for 10 min to separate the soluble and polymerized tubulin fractions. […]

NCI-H358 cells = test: Flow cytometric cell cycle analysis, synchronized NCI-H358; format: cell-based, human; conditions: NCI-H358 after nocodazole block, released in presence of BPT, within 12 h
Procedure: as §2

A549 and Calu-1 cells = test: Colony formation (clonogenic) assay, A549 and Calu-1; format: cell-based, human; conditions: p53+ A549 and p53-null Calu-1, 12-day experiment
Procedure: A549 and Calu-1 cells were plated at a concentration of 500 cells per well in 35 mm/6-well plates in 2 ml complete medium. The plates were incubated for 24 h stabilization and further incubated with a range of concentrations of fascaplysin and BPT for 24 h. Plates were then gently washed with PBS, replaced with fresh medium and incubated at 37 °C. After 10–12 days, cells were fixed in methanol:acetic acid (2 : 1) fixative for 10 min, washed, air dried and stained with 1% crystal violet. The colonies were evaluated by visual counts. The number of colonies in treated cultures was expressed as a percentage of the control cultures. All results represent means and standard deviations from at least three independent experiments.

In the case of `O=C(c1ccccc1-c1ccccc1)N1CCc2c([nH]c3ccccc23)C1` [BPT, 2-(biphenyl-2-carbonyl)-2,3,4,9-tetrahydro-1H-pyrido[3,4-b]indole], the IC50 [1] is reported as 0.85 µM, the IC50 (PKCα) is reported as > 10 µM and the IC50 (GSK3β) is reported as > 10 µM. For the same compound, the IC50 (Cdk7-cyclin H) was > 10 µM, the “cells in Sub G1 (apoptosis)” value ([2]; BNL SV A.8, IC50 concentration) was 43% and the “cells in Sub G1 (apoptosis)” value ([2]; BNL SV A.8, IC70 concentration) was 51%. The IC50 (Cdk9-cyclin T1) was > 1000 µM, the IC50 (PDGFR) was > 10 µM and the “paclitaxel-mediated tubulin polymerization in live cells” value (tubulin in A549 cells; A549, simultaneous 10 nM paclitaxel and BPT, 30 min) was “inhibited in a dose-dependent manner”. For the same compound, the “depolymerization of paclitaxel-stabilized tubulin in live cells” value (tubulin in A549 cells; A549 pretreated with 10 nM paclitaxel 30 min, then BPT 30 min) was “enhanced the tubulin depolymerization”, the “G0/G1- and S-phase cells entering the G2/M phase” value (NCI-H358 cells) was > 50% and the colony formation efficiency (A549 and Calu-1 cells) was “significant reduction”.
